According to PMC3543149 (Diabetologia, 2012):

Biological target: T1, PKC-ι (Homo sapiens, UniProt P41743)
T1 sequence (P41743 2-596): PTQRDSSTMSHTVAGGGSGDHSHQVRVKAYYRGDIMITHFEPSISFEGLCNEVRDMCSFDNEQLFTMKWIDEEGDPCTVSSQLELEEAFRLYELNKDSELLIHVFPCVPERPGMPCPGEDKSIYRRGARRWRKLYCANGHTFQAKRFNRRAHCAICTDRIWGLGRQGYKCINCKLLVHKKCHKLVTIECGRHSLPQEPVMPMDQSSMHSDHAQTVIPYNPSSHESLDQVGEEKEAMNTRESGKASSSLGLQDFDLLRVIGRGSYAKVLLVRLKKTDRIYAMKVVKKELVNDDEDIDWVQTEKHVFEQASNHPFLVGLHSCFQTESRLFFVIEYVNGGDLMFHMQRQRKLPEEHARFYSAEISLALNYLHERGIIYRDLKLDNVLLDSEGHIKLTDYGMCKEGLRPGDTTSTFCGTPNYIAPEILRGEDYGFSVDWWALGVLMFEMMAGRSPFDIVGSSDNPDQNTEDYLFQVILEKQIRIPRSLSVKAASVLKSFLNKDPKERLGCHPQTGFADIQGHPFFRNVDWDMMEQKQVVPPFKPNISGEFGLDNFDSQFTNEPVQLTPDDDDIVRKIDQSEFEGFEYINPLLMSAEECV
Experiment: […]-ATP kinase assay of recombinant PKC-ι activated by PIP3, dose response
Type: biochemical

## NC(=O)c1ncn([C@@H]2C[C@H](COP(=O)(O)O)[C@@H](O)[C@H]2O)c1N [ICAPP]
  IC50: 10 to 100 nM
